PubChem BioAssay AID651677 (The Scripps Research Institute Molecular Screening Center, 2012)
Calls of active or inactive are those of the source. How the calls were made is not given here.

Molecular target: Perilipin-5 (Homo sapiens) + 1-acylglycerol-3-phosphate O-acyltransferase ABHD5 (Homo sapiens) (UniProt Q00G26+Q8WTS1)
Assay: blockers of ABHD5 binding to perilipin-5 – biochemical, luminescence, dose response (AID 651677)
Conditions: ABHD5-PLIN5 interaction

Chain of Perilipin-5 (Homo sapiens) + 1-acylglycerol-3-phosphate O-acyltransferase ABHD5 (Homo sapiens) (Q00G26 whole entry, looked up): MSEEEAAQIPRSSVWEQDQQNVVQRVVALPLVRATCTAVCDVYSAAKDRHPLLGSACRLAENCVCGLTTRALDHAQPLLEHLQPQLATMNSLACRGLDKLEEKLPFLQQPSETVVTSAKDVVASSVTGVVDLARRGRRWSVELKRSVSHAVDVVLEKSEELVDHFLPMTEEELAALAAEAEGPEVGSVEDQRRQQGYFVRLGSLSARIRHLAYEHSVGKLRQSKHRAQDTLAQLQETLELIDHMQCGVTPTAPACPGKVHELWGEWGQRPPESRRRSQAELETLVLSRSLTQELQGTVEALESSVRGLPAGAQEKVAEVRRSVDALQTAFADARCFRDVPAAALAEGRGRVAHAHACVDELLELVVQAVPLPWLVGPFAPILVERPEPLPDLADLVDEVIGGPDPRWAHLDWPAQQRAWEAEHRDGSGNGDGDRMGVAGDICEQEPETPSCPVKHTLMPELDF
Chain of Perilipin-5 (Homo sapiens) + 1-acylglycerol-3-phosphate O-acyltransferase ABHD5 (Homo sapiens) (Q8WTS1 whole entry, looked up): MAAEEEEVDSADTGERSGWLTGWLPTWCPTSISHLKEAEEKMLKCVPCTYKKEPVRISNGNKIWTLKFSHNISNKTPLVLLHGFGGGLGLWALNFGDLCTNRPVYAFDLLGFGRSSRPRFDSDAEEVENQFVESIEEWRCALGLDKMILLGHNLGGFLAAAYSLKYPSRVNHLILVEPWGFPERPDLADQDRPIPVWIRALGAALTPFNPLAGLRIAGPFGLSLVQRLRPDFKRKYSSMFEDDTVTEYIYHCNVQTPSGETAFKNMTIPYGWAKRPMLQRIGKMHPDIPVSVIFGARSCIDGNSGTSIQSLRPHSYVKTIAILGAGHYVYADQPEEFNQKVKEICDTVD

Structure (SMILES) | IC50
COc1ccc(NC(=O)C(c2ccnc3ccccc23)n2c(=O)c(-c3ccco3)nc3ccccc32)cc1 (centres undefined) | 8.17 µM
CC(C)(C)NC(=O)C(c1cc2ccccc2o1)n1c(=O)c(-c2ccco2)nc2ccccc21 (centres undefined) | 1.55 µM
CC(C)(C)NC(=O)C(c1ccncc1)n1c(=O)c(-c2ccco2)nc2ccccc21 (centres undefined) | 3.66 µM
CCCCCCC=C1CCC(CN2CCCC2)C1=O (centres undefined) | 1.94 µM
CN(C)CCOc1ccc(/C(=C(/CCCl)c2ccccc2)c2ccccc2)cc1 | 1.38 µM
CC(C)(C)NC(=O)C(c1ccccc1F)n1c(=O)c(-c2ccco2)nc2ccccc21 (centres undefined) | 2.27 µM
CCCNC(=O)Nc1ccc2c(c1)N(C)C(=O)c1ccccc1S2 | 8.61 µM
O=C1NC(=O)N(Cc2ccccc2)C(=O)/C1=C\C=C\c1ccco1 | 1.32 µM
O=C(NCc1ccccc1)C(c1ccc(C(F)(F)F)cc1)n1c(=O)c(-c2ccco2)nc2ccccc21 (centres undefined) | 1.31 µM
CCCc1nnc(NC(=O)c2nc(S(=O)(=O)Cc3cccc(C)c3)ncc2Cl)s1 | 3.41 µM
CC(O)CC(=O)OC[C@]12CC[C@H]3[C@@](C)(CC[C@H]4C(C)(C)CCC[C@]34C)[C@@H]1CC(C1=CC(=O)OC1O)O2 (some centres undefined) | 0.857 µM
C#CCOCCOCCOCCNc1nc(N2CCN(C(=O)CCCCCCCCCCNC(=O)[C@@H](CCSC)n3cc(CCO)nn3)CC2)nc(N2CCN(C(=O)CCCCCCCCCCNC(=O)[C@@H]([C@H](C)O)n3cc(C)nn3)CC2)n1 | > 39.8 µM (inactive)
COC(=O)c1cc(=O)n(-c2ccc(F)cc2)c(=Nc2ccc(F)cc2)s1 | 3.09 µM
O=C(/C=C/c1ccccc1)CC(O)(c1ccccc1)C(F)(F)C(F)F (centres undefined) | 1.15 µM
COc1ccc(OCc2cn(CC(=O)c3ccc(O)cc3)nn2)cc1 | 3.07 µM
CCN(CCCc1ccccc1)CCCc1ccccc1 | 2.66 µM
CC1CN(Cc2c(O)ccc3c2oc(=O)c2ccccc23)CC(C)O1 (centres undefined) | 2.12 µM
CCCCCNC(=O)C(c1cccc2ccccc12)n1c(=O)c(-c2ccco2)nc2ccccc21 (centres undefined) | 1.57 µM
O=C(CF)N(O)c1ccc(C=Cc2ccccc2)cc1 | > 39.9 µM (inactive)
CC(c1nc2ccccc2[nH]1)n1c(=O)c(-c2ccco2)nc2ccccc21 (centres undefined) | 2.76 µM
CC(=O)Nc1ccc(OCc2cn(CC(=O)c3ccc(O)cc3)nn2)cc1 | 2.32 µM
CC1=CC(C)(C)Nc2ccc(OC(=O)CN3C(=O)CCC3=O)cc21 | 2.2 µM
C#CCN(C[C@@H]1[C@@H](OC(=O)NCCCCCC)[C@@H](OC(=O)NCCCCCC)Cn2c(=O)ccc(=O)n21)S(=O)(=O)c1ccc(C)cc1 | 4.74 µM
CCOC(=O)c1c(NC(C)=O)sc2c1CCC(C=O)=C2Sc1ccccc1 | 2.4 µM
CN1[C@@H]2CC[C@H]1CC(OC1c3ccccc3CCc3ccccc31)C2 (some centres undefined) | 2.49 µM

Structure (SMILES) | IC50
CCN1/C(=C/C=C/c2oc3ccc(-c4ccccc4)cc3[n+]2CC)Oc2ccc(-c3ccccc3)cc21 | 1.03 µM
CSc1nnc(NC(=O)c2nc(S(=O)(=O)Cc3ccccc3F)ncc2Cl)s1 | 2.77 µM
CC1=CC(C)(C)Nc2ccc(OC(=O)CN3C(=O)c4cccc5cccc(c45)C3=O)cc21 | 6.89 µM
CC(C)(C)NC(=O)C(c1ccnc2ccccc12)n1c(=O)c(-c2ccco2)nc2ccccc21 (centres undefined) | 4.81 µM
Cc1ccc(C)c(/C=C/C(=O)c2ccccc(=O)c2O)c1 | 4.05 µM
NC(=O)C(C(=O)/C=C/c1ccc(Cl)cc1)=C1SCCS1 | inactive
CCC(C)NC(=O)Nc1ccc2c(c1)N(C)C(=O)c1ccccc1S2 (centres undefined) | 4.97 µM
COc1ccc(NC(=O)C(c2ccc(OC)cc2)n2c(=O)c(-c3ccco3)nc3ccccc32)cc1 (centres undefined) | 6.13 µM
CC1CCN(S(=O)(=O)c2ccc(NC(=O)Cc3ccccc3)cc2)CC1 | 9.47 µM
c1ccc(CCC2=NCCn3cccc32)cc1 | inactive
Cc1ccc2sc(N(CCCN(C)C)C(=O)CN3C(=O)c4ccccc4C3=O)nc2c1C | inactive
COc1ccc(/C=C\C(=O)CC(O)(c2ccccc2)C(F)(F)F)cc1 (centres undefined) | 2.89 µM
CC1=CC(C)(C)Nc2ccc(OC(=O)CN3C(=O)C4CCCCC4C3=O)cc21 (centres undefined) | 2.5 µM
CC(=O)OCC1=C(C(=O)O)N2C(=O)C(NC(=O)CCn3nc(C(F)(F)F)c(Br)c3C3CC3)C2SC1 (centres undefined) | 5.24 µM
CN(C)CCN(Cc1ccco1)c1ccccn1 | 7.75 µM
Cc1ccc2nc3cc([N+](=O)[O-])cc([N+](=O)[O-])c3cc2c1 | 0.6 µM
CCN1CCN(Cc2ccc(NC(=O)c3ccc(C)c(/C=C/c4cnc(Nc5cc(N6CCNCC6)nc(C)n5)cn4)c3)cc2C(F)(F)F)CC1 | 2.58 µM
COc1cc2c(cc1OC)C(C)N(CCc1ccc(Cl)cc1)CC2 (centres undefined) | inactive
CC1CCN(S(=O)(=O)c2ccc(NC(=O)Cc3cccs3)cc2)CC1 | inactive
Cc1ccc(/C=C/C(=O)c2cc(Br)ccc2OC(=O)c2ccco2)cc1 | 0.922 µM
CCCCC(=O)NC(c1cccc([N+](=O)[O-])c1)c1ccc2cccnc2c1O (centres undefined) | > 39.8 µM (inactive)
C=C1C(=O)O[C@H]2C[C@H]1[C@@H](OC(C)=O)C/C(C)=C/CC/C(C)=C\CC[C@]2(C)O | 1.91 µM
O=C(NC1CCCCC1)C(c1cc2ccccc2o1)n1c(=O)c(-c2ccco2)nc2ccccc21 (centres undefined) | 1.36 µM
Cc1cc(C)c2nc(NNC(=O)c3ccc(S(=O)(=O)N4CCCC(C)C4)cc3)sc2c1 (centres undefined) | 5.27 µM
Cc1cccc(C)c1NC(=O)C(c1ccccc1F)n1c(=O)c(-c2ccco2)nc2ccccc21 (centres undefined) | 2.73 µM

Structure (SMILES) | IC50
Cc1cccc(C)c1NC(=O)C(c1ccc(C#N)cc1)n1c(=O)c(-c2ccco2)nc2ccccc21 (centres undefined) | 2.45 µM
O=C(NC1CCCCC1)C(c1cccc2ccccc12)n1c(=O)c(-c2ccco2)nc2ccccc21 (centres undefined) | 0.94 µM
O=c1c(-c2ccco2)nc2ccccc2n1C(CCc1ccccc1)c1nc2ccccc2[nH]1 (centres undefined) | 1.58 µM
O=C(NCc1ccccc1)C(c1cc2ccccc2o1)n1c(=O)c(-c2ccco2)nc2ccccc21 (centres undefined) | 2.42 µM
CC(C)c1nnc(NC(=O)c2nc(S(=O)(=O)Cc3ccc(F)cc3)ncc2Cl)s1 | 1.94 µM
CC1Sc2ccc(S(=O)(=O)N3CCC(C(=O)NCc4ccc(Cl)cc4)CC3)cc2NC1=O (centres undefined) | inactive
CCSc1ccc2c(c1)N(CCCN1CCN(C)CC1)c1ccccc1S2 | 5.86 µM
Oc1c(C(c2ccccc2)N2CCCCC2)ccc2ccccc12 (centres undefined) | 0.845 µM
CCN1C/C(=C/c2ccc(OC)c(O)c2)C(=O)/C(=C/c2ccc(OC)c(O)c2)C1 | 5.66 µM
COc1ccc(C(C(=O)NCc2ccccc2)n2c(=O)c(-c3ccco3)nc3ccccc32)cc1 (centres undefined) | 2.22 µM
COc1ccc(-c2cc(N)n(S(=O)(=O)c3c(F)c(F)c(F)c(F)c3F)n2)cc1OC | 6.83 µM
CCCCCNC(=O)C(C1CC1)n1c(=O)c(-c2ccco2)nc2ccccc21 (centres undefined) | 9.79 µM
Cc1ccc(S(=O)(=O)N2C[C@H]3n4c(=O)ccc(=O)n4C[C@H](OC(=O)Nc4cccs4)[C@@]3(O)C2)cc1 | 7.93 µM
CSc1nnc(NC(=O)c2nc(S(=O)(=O)Cc3ccccc3)ncc2Cl)s1 | 3.83 µM
CN1CCC(=C2c3ccccc3CC(=O)c3sccc32)CC1 | inactive
COC(=O)c1cc(=O)n(Cc2ccco2)c(=Nc2ccc(F)cc2)s1 | 3.68 µM
COc1ccc(C)c2sc(N(CCN(C)C)C(=O)/C=C/c3cccs3)nc12 | 9.91 µM
CCOc1cc(N)c(Cl)cc1C(=O)NCC1CN(Cc2ccc(F)cc2)CCO1 (centres undefined) | 2.5 µM
O=c1[nH]c(C2CCN(S(=O)(=O)c3ccc(S(=O)(=O)NC4CC4)cc3)CC2)nc2c1nnn2Cc1ccc(F)cc1 | 5.66 µM
O=C(Nc1ccc2c(c1)OCCO2)C(c1ccccc1F)n1c(=O)c(-c2ccco2)nc2ccccc21 (centres undefined) | inactive
Cc1ccc(C(=O)/C=C/c2cc(Br)cc(Br)c2O)o1 | 5.54 µM
COc1cc(OC)cc(C(=O)NC(=S)N(Cc2ccccc2)C(C)C)c1 | inactive
COc1ccc(C(C(=O)Nc2c(C)cccc2C)n2c(=O)c(-c3ccco3)nc3ccccc32)cc1 (centres undefined) | 2.38 µM
CC(C)(C)NC(=O)C(c1ccc(C#N)cc1)n1c(=O)c(-c2ccco2)nc2ccccc21 (centres undefined) | 1.85 µM
CC(=O)Oc1c(Cl)c(N2CCOCC2)c(OC(C)=O)c2ccccc12 | 4.28 µM

Structure (SMILES) | IC50
Cc1ccc(CC2(OCCN(C)C)CCC(C(C)(C)C)CC2)cc1 (centres undefined) | 8.61 µM
COCCN(CCOC)c1nc(N)c2c(N)nc3c(c2c1C#N)CC(=O)N3Cc1ccc(Cl)cc1 | inactive
CCc1nnc(NC(=O)c2nc(S(=O)(=O)Cc3ccccc3)ncc2Cl)s1 | 4.14 µM
CCCCCNC(=O)C(c1cc2ccccc2o1)n1c(=O)c(-c2ccco2)nc2ccccc21 (centres undefined) | 1.16 µM
CCCC(=O)NC(c1cccc([N+](=O)[O-])c1)c1ccc2cccnc2c1O (centres undefined) | > 39.8 µM (inactive)
COc1ccc(NC(=O)c2cc3ccccc3cc2O)cc1 | 9.05 µM
CCOC(=O)c1c(NC(=O)/C=C/C(=O)O)sc(C)c1-c1ccc(C(C)(C)C)cc1 | 6.74 µM
CS(=O)(=O)c1ccc(C(=O)NCCN2C(=O)S/C(=C\c3cccnc3)C2=O)cc1[N+](=O)[O-] | 3.67 µM
O=C1NC(=O)N(c2ccccc2F)C(=O)/C1=C/c1ccc(Oc2ccc([N+](=O)[O-])cn2)cc1 | 1.47 µM
O=C(NCc1ccccc1)C(c1cccc2ccccc12)n1c(=O)c(-c2ccco2)nc2ccccc21 (centres undefined) | 2.23 µM
CCCCCNC(=O)C(c1ccccc1F)n1c(=O)c(-c2ccco2)nc2ccccc21 (centres undefined) | 0.862 µM
CC(=O)Oc1ccc(C23c4ccccc4C2(OC(C)=O)c2cc(OC(C)=O)ccc23)cc1 (centres undefined) | 0.72 µM
Cc1cc(C)c(C(CC(=O)c2cccs2)C(C#N)C#N)c(C)c1 (centres undefined) | 8.6 µM
CC(=O)Oc1c(Br)cc(N(C(C)=O)S(=O)(=O)c2ccccc2)c2ccccc12 | 6.41 µM
CC1=CC(C)(C)Nc2ccc(OC(=O)C(C)N3C(=O)c4ccccc4C3=O)cc21 (centres undefined) | 2.64 µM
Cc1cc(C)c(NC(=O)CN2CCN3CCCC3C2)c(C)c1 (centres undefined) | 9.27 µM
O=C1/C(=C/c2cccnc2)CC/C1=C\c1cccnc1 | 3.31 µM
COc1ccc(NC(=S)N(CCCN2CCCC2)Cc2cccn2Cc2ccc(Cl)cc2)cc1Cl | inactive
CCC(C(=O)OCCN(CC)CC)c1ccccc1 (centres undefined) | 2.55 µM
COc1cccc2sc(N(CCCN(C)C)C(=O)COc3ccc(Cl)cc3)nc12 | inactive
O=C1C(=O)c2c(C(=O)c3ccccc3)coc2-c2ccccc21 | 2.93 µM
CCC(=O)Nc1cccc(C(=O)/C=C/c2ccccc2)c1 | 2.71 µM
CCc1nnc(NC(=O)c2nc(S(=O)(=O)Cc3cccc(C)c3)ncc2Cl)s1 | 3.33 µM
O=C1NC(=S)NC(=O)C12C(c1ccccc1)NC(=S)NC2c1ccccc1 (centres undefined) | 4.39 µM
